Data on 20 compounds can be found in paper PMC12635197, “Discovery of first-in-class inhibitors of the TRF1:TIN2 protein:protein interaction by fragment screening” (Scientific Reports, 2025).

The target in data set [1] is T1, TRF1TRFH (Homo sapiens, UniProt P54274).
T1 construct: encoding residues 47–268, UniProt identifier P54274-1; His6-MBP (TEV-cleavable) (N, cleaved yes); made in house; host or cells: E. coli BL21-CodonPlus(DE3)-RIL
T1 sequence (P54274 47-268): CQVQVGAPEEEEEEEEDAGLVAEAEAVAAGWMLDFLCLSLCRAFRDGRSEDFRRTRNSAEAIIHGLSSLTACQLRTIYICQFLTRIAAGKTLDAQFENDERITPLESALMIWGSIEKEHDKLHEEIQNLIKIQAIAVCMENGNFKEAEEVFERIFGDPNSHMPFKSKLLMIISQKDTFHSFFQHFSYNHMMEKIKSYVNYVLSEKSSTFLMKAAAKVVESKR
Kind of data set: LO-NMR CPMG assay (relaxation-edited), singletons. In kind it is binding. The conditions noted are these: single experiment; for CPMG reduction: average peak intensity reduction on addition of TRF1TRFH, 250 µM ligand, 20 µM protein; for CPMG recovery: net recovery of peak intensity on addition of TIN2TBM peptide (40 µM) to compound plus protein. On the procedure:
We next used a LO-NMR CPMG assay to orthogonally validate XChem hits in solution, aiming to eliminate false positives and rank hit matter for follow-up studies. Compounds were tested as singletons and prepared in two samples containing either compound alone (sample 1) or compound + TRF1TRFH (sample 2).
The fragment screen by LO-NMR was carried out using conditions described previously, with some modifications. Fragments were dispensed in triplicate into a 384-well plate using an Echo 550 liquid handler to give a final ligand concentration of 250 µM (total sample volume of 40 µL). 40 µL of TRF1TRFH protein (in NMR buffer; 20 µM final protein concentration in the assay) were added to the ‘protein’ samples; 40 µL of TRF1TRFH protein and TIN2TBM peptide (21-mer, Ac-[…]-CONH2; 40 µM final concentration in the assay) were both added to the ‘competitor’ samples; 40 µL NMR buffer were added to the ‘compound-only’ samples. Solutions were transferred to 1.7-mm NMR tubes using a Bruker SamplePro Tube robotics system. ^1H NMR spectra were recorded on a Bruker AVIII 500 MHz spectrometer at 298 K, equipped with a 1.7-mm TXI probe, with samples in 1.7-mm SampleJET NMR tubes (Bruker). DMSO and water signals were dampened. A relaxation spin filter was applied at 400 ms. Data were processed using Bruker Topspin 4.0. Lines were broadened with LB = 3.0, and the baseline was corrected between 6.0 and 10.0 ppm.
The data were then analysed using the MNova Screen software. Only peaks between 5.5 and 9.5 ppm were considered. Peaks with a height of < 5% maximum peak height within the region of interest were considered noise, and the minimum matched peak level was set at > 51%. The relative peak intensity change (I) was calculated for all peaks in the 5.5–9.5 ppm region, for each compound, as described previously. The average integral for all peaks between 6.0 and 10.0 ppm was calculated, and the differences between compound-only, compound-plus-protein, and compound-plus-protein-plus-competitor samples were compared. The net recovery was calculated by subtracting the reduction in peak integral of the compound-plus-protein samples from the compound-plus-protein-plus-competitor samples.
For hit validation, relaxation-edited LO-NMR experiments were repeated as described above on single compounds instead of fragment cocktails.

Data set [2] addresses T1, TRF1TRFH. Description: LO-NMR R2KD assay. Format: binding. The conditions noted are these: for Kd: global KD shared across 1H NMR peaks, single experiment, 95% CI in parentheses, 2 µM TRF1TRFH. On the procedure: Recent work by Liu and colleagues introduced a novel LO-NMR method that can be used to quantitatively determine the dissociation constant (KD) of a ligand for a protein from measured R2 values of ligand nuclei at a range of ligand concentrations.
The R2KD assay was carried out as described by Liu et al.[40]. A Bruker SamplePro liquid handler was used to prepare 10 samples: 8 samples containing an increasing ligand concentration from 50 to 500 µM whilst maintaining a constant TRF1TRFH concentration (2 µM final); and two samples containing ligand only at 200 µM and 400 µM. All ten samples were prepared from stock solutions of ligand, DMSO, protein and buffer alone using the Bruker SamplePro liquid handler prior to transfer to 3-mm NMR tubes.
NMR data were collected at 298 K on a Bruker Avance Neo 600-MHz spectrometer using the Bruker Topspin 4.0 software. T2 relaxation experiments were performed using the standard Bruker CPMG pulse program with Excitation Sculpting incorporated to suppress water signal. The spin-echo period (delay-180°-delay) was set to 1 ms (d20 = 500 µs), and the relaxation delay (d1) was set to 10 s. The sudo-2D experiment contained nine slices with the spin echo period repeated at the following times: 4, 20, 100, 200, 300, 500, 700, 1000, and 2000 ms. T2 relaxation data were processed using the MestReNova 14.1 data analysis module to obtain integrals of individual[1]H-NMR signals, which were used to calculate R2 with the equation I = I0e^(−tR2). GraphPad Prism 9.0.0 was used to fit R2 values of individual compound peaks to obtain an overall (shared) KD value from all peaks of the compound.

Data set [3] is described as follows: Fragment solubility assay (quantitative 1H NMR). In kind it is physicochemical. The conditions noted are these: NMR buffer, overnight incubation, 1H NMR quantified against 1 mM caffeine standard. On the procedure:
Aqueous solubility test samples were prepared by adding 3.6 µL compound (50 mM stock in 100% DMSO-d6) to 176.4 µL NMR buffer in a microcentrifuge tube. The samples were incubated overnight and transferred to a 3-mm NMR tube (Bruker, Part No. Z112272). ^1H NMR spectra were recorded, with the DMSO and water signals dampened. 1 mM caffeine (Sigma, C1778 in PBS (pH 7.4) with 1% DMSO-d6) was used as a standard to quantify the ligand signals and determine the concentration of samples.
NMR data were collected on a Bruker Avance Neo 600-MHz spectrometer equipped with a 5 mm TCI-CryoProbe. The ^1H spectrum was referenced to the internal deuterated solvent. The operating frequency for ^1H was 600 MHz. All NMR data were acquired at the temperature of 298 K. All data were acquired and processed using Bruker Topspin 4.0. The quantitative ^1H-NMR spectrum was acquired using a Bruker standard 1D lc1pngppsf2 pulse sequence with 32 scans. The sweep width was 6.2 ppm with O1P set to 8.8 ppm, and the FID contained 16k time-domain data points. Relaxation delay was set to 20 s. Water signal was suppressed.

Data set [4] has as its target T2, TRF1TRFH:TIN2-FAM interaction (Homo sapiens, UniProt P54274).
T2 construct: encoding residues 47–268, UniProt identifier P54274-1; His6-MBP (TEV-cleavable) (N, cleaved yes); made in house; host or cells: E. coli BL21-CodonPlus(DE3)-RIL (TRF1TRFH); probe peptide from Pepceuticals
T2 sequence (P54274 47-268): T1 sequence (P54274 47-268)
Description: Fluorescence polarisation (FP) competition assay, TIN2-FAM displacement. In kind it is binding. The conditions noted are these: 0.6 µM TRF1TRFH, 25 nM TIN2-FAM; mean of three independent experiments, 95% CI in parentheses. On the procedure: To complement the biophysical R2KD assay, we developed a fluorescence polarisation (FP) competition assay based on a TIN2TBM peptide labelled with an N-terminal 5(6)-carboxyfluorescein (6-FAM) fluorophore. […] The NMR hit analogues were then titrated against constant concentrations of TRF1TRFH and TIN2-FAM (0.6 µM and 25 nM, respectively).
A TIN2TBM peptide was obtained from Pepceuticals with a 5(6)-carboxyfluorescein (FAM) fluorophore added to the N-terminus for fluorescence studies. To determine the assay window for the FP assay, the TIN2-FAM probe was prepared as a 16-µM stock in aqueous buffer and titrated from 0 to 400 nM against either a constant concentration of TRF1TRFH (0.5 µM in FP buffer) or FP buffer alone (25 mM HEPES-NaOH pH 7.5, 100 mM NaCl, 1 mM TCEP, 0.05% w/v CHAPS). Samples were prepared to a final volume of 10 µL in Packard Proxiplate 384 F plus plates; plates were incubated in darkness at room temperature for 1 h prior to measuring fluorescence intensities and calculating FP values, using a BMG Labtech PHERAstar FSX plate reader with an FP 485 520 520 optic module. A settling time of 0.3 s was used, and the number of flashes was set to 200 for FP measurements. For each plate, a target mP of 35 was set and the gain adjusted on the TIN2-FAM probe control well minus protein.
For the FP competition assay, the unlabelled compounds (from 50-mM DMSO stocks) were first dispensed in duplicate into wells of a Proxiplate 384 F Plus plate using an Echo 550 acoustic liquid handler to give a 13-point concentration range from 0.2 to 500 µM. Wells were then backfilled to 250 nL with DMSO before the addition of 5 µL of 2x TRF1TRFH (0.6 µM final concentration) and 4.75 µL 2x TIN2-FAM (25 nM final concentration). Plates were spun and sealed prior to incubation for 1 h in darkness. FP measurements were then carried out as described above.
For orientation: In fluorescence polarisation assays a small probe gives low polarisation when free and higher when bound to something large.

`O=C(NC1CC1)c1cnn2cccnc12` [Compound 1]: at TRF1TRFH [1], the CPMG reduction was determined as 13%.

Take `CN(C)C(=O)COc1cccc(F)c1` [Compound 6]: the CPMG reduction on TRF1TRFH [1] is 12%.

As for `NS(=O)(=O)c1ccccc1OC(F)F` [Compound 15], the CPMG reduction at TRF1TRFH [1] is 0%.

`c1ccc(-c2noc(C3CCC3)n2)nc1` [Compound 16] gave a CPMG reduction at TRF1TRFH [1] of 22%.

A word on the Kd: it is the concentration at which binding is half-saturated. Take `CCOc1ccc(S(=O)(=O)O)c2ccccc12` [Compound 27]: on TRF1TRFH [1], the CPMG reduction is 96% and the CPMG recovery turned out to be 49%. The equilibrium dissociation constant (Kd) on TRF1TRFH [2] amounted to 280 µM. Further, in data set [3], the “Kin. Sol.” value was found to be 810 µM.

In the case of `COc1ccc(S(=O)(=O)O)c2ccccc12` [Compound 28, 4-methoxy-1-naphthalenesulfonic acid], at TRF1TRFH [1], the CPMG reduction was determined as 87% and the CPMG recovery was determined as 22%. The “Kin. Sol.” value in data set [3] came out at 610 µM.

For `O=S(=O)(O)c1ccc(O)c2ccccc12` [Compound 29, 1-naphthol-4-sulfonic acid], the dissociation constant Kd on TRF1TRFH [2] is greater than 1000 µM. Moreover, the “Kin. Sol.” value in data set [3] came out at 840 µM.

With `CC(C)Oc1ccc(S(=O)(=O)[O-])c2ccccc12.[Na+]` [Compound 30], on TRF1TRFH [1], the CPMG reduction is recorded as 83% and the CPMG recovery turned out to be 4%. Besides, the Kd on TRF1TRFH [2] is greater than 1000 µM. Moreover, in data set [3], the “Kin. Sol.” value came out at 860 µM.

The term IC50 denotes the point on the concentration scale where inhibition reaches its midpoint. As to `O=S(=O)(O)c1ccc(OCc2ccccc2)c2ccccc12` [Compound 32], on TRF1TRFH [1], the CPMG reduction stood at 100% and the CPMG recovery stood at 29%. For the same compound, the IC50 in data set [4] amounted to 150 µM. Moreover, the “increase in affinity relative to ethoxy parent 27” value on TRF1TRFH [2] (R2KD assay) is recorded as “five-fold increase in affinity”. The dissociation constant Kd at TRF1TRFH [2] was found to be 61 µM. Further, in data set [3], the “Kin. Sol.” value is listed as 850 µM.

In the case of `CCOc1ccc(S(N)(=O)=O)c2ccccc12` [Compound 33, 4-ethoxynaphthalene-1-sulfonamide], at TRF1TRFH [1], the CPMG reduction is on record as 79% and the CPMG recovery was found to be 1%. Moreover, the “Kin. Sol.” value in data set [3] is 50 µM.

As to `CCOc1ccc(C(=O)O)c2ccccc12` [Compound 34, 4-ethoxy-1-naphthoic acid], on TRF1TRFH [1], the CPMG reduction stood at 28% and the CPMG recovery came out at 20%. In addition, the “Kin. Sol.” value in data set [3] was found to be 895 µM.

Regarding `CCOc1ccc(S(=O)(=O)N(C)C)c2ccccc12` [Compound 35], in data set [3], the “Kin. Sol.” value is on record as less than 50 µM.

Consider `CCOc1ccc(S(=O)(=O)NCc2ccccc2)c2ccccc12` [Compound 36], for which the “Kin. Sol.” value in data set [3] stood at 0 µM.

In the case of `Cc1cccc(COc2ccc(S(=O)(=O)[O-])c3ccccc23)c1.[Na+]` [Compound 37], the IC50 in data set [4] was found to be 200 µM. The Kd on TRF1TRFH [2] was found to be 83 µM. Also, the “Kin. Sol.” value in data set [3] is recorded as 460 µM.

As for `COc1cccc(COc2ccc(S(=O)(=O)[O-])c3ccccc23)c1.[Na+]` [Compound 38], in data set [4], the IC50 amounted to 150 µM. Besides, on TRF1TRFH [2], the Kd stood at 53 µM. Also, the “Kin. Sol.” value in data set [3] was determined as 570 µM.

Turning to `COc1ccccc1COc1ccc(S(=O)(=O)[O-])c2ccccc12.[Na+]` [Compound 39], the IC50 in data set [4] was 170 µM. Also, on TRF1TRFH [2], the dissociation constant (Kd) amounted to 110 µM. Moreover, the “Kin. Sol.” value in data set [3] was 320 µM.

On to `CCCOc1cccc(COc2ccc(S(=O)(=O)[O-])c3ccccc23)c1.[Na+]` [Compound 41], for which, in data set [4], the half-maximal inhibitory concentration (IC50) was determined as 23 µM. Besides, the dissociation constant Kd at TRF1TRFH [2] turned out to be 46 µM. Further, in data set [3], the “Kin. Sol.” value is 590 µM.

For `O=S(=O)([O-])c1ccc(OCc2cccc(OC(F)(F)F)c2)c2ccccc12.[Na+]` [Compound 42], the half-maximal inhibitory concentration (IC50) in data set [4] came out at 80 µM. Moreover, the “Kin. Sol.” value in data set [3] was determined as 260 µM.

`O=S(=O)([O-])c1ccc(OCc2cccc(Cl)c2)c2ccccc12.[Na+]` [Compound 43]: the IC50 in data set [4] is 180 µM. For the same compound, on TRF1TRFH [2], the Kd is 140 µM. The “Kin. Sol.” value in data set [3] amounted to 500 µM.

For `O=S(=O)([O-])c1ccc(OCc2cccc(Br)c2)c2ccccc12.[Na+]` [Compound 44], the concentration for half-maximal inhibition (IC50) in data set [4] was 110 µM. Further, the “Kin. Sol.” value in data set [3] turned out to be 160 µM.
